Like-named read-outs stand apart in the source and are kept apart here.
What was measured:
Assay in all cases: Kinase selectivity, P33-radiolabeled assay
Format in all cases: biochemical
Conditions in all cases: 10 μM ATP
[1] = target: T1, FRK/PTK5 (Homo sapiens, UniProt P42685)
T1 construct: purchased Reaction Biology Corp
Procedure, shortened: (§1)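 Duplicate single-concentration testing used 10 μM compound. The ATP concentration was also 10 μM.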

[2] = target: T2, EPHA7 (Homo sapiens, UniProt Q15375)
T2 construct: purchased Reaction Biology Corp
T2 sequence (Q15375 28-998): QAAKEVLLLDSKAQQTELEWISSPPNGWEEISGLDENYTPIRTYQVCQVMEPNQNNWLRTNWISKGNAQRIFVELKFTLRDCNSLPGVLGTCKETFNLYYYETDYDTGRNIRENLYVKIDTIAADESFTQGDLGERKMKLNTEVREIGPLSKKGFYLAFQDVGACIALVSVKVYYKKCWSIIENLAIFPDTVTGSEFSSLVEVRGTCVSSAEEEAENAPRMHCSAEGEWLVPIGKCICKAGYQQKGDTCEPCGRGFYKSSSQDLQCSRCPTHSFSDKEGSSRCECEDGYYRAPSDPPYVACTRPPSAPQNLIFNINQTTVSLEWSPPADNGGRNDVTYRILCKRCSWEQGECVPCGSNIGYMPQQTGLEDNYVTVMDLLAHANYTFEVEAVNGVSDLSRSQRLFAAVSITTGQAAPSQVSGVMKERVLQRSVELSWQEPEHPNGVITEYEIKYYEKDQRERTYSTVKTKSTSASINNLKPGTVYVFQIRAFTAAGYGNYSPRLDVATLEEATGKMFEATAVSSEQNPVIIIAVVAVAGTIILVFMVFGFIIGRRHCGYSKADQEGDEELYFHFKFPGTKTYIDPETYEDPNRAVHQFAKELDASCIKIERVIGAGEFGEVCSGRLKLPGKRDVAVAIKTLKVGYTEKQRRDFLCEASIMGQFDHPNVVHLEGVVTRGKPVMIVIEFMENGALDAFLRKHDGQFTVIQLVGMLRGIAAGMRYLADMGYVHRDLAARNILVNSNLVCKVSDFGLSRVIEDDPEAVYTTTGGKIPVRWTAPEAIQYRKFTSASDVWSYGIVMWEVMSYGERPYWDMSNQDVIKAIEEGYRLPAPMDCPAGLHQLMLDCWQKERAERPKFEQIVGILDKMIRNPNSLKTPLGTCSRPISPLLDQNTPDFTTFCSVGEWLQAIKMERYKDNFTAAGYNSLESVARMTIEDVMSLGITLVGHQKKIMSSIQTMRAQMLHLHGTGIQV
Procedure, shortened: as §1

[3] = target: T3, RSK4 (Homo sapiens, UniProt Q9UK32)
T3 construct: purchased Reaction Biology Corp
Procedure, shortened: as §1

[4] = target: T4, ERK5/MAPK7 (Homo sapiens, UniProt Q13164)
T4 construct: purchased Reaction Biology Corp
Procedure, shortened: as §1

[5] = target: T5, CDK4/cyclin D3 (Homo sapiens, UniProt P11802)
T5 construct: purchased Reaction Biology Corp
T5 sequence (P11802 whole entry): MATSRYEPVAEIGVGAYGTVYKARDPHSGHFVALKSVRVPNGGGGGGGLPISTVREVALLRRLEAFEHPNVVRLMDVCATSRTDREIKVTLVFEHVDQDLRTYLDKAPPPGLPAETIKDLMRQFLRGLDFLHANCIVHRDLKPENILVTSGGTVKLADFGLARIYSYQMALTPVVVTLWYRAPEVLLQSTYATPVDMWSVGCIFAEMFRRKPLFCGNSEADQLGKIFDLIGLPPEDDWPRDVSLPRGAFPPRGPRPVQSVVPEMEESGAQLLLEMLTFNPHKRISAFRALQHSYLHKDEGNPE
T5 sequence (P30281 whole entry partner): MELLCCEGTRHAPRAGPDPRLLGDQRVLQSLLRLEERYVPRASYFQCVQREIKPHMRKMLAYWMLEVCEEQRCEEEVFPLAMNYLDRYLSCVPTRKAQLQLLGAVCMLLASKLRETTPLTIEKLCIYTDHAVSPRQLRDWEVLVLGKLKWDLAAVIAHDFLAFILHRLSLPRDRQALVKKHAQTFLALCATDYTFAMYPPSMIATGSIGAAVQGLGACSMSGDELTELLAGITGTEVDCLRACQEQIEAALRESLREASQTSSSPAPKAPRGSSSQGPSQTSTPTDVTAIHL
Procedure, shortened: as §1

[6] = target: T6, ABL2/ARG (Homo sapiens, UniProt P42684)
T6 construct: purchased Reaction Biology Corp
Procedure, shortened: as §1

[7] = target: T7, GRK7 (Homo sapiens, UniProt Q8WTQ7)
T7 construct: purchased Reaction Biology Corp
T7 sequence (Q8WTQ7 1-553): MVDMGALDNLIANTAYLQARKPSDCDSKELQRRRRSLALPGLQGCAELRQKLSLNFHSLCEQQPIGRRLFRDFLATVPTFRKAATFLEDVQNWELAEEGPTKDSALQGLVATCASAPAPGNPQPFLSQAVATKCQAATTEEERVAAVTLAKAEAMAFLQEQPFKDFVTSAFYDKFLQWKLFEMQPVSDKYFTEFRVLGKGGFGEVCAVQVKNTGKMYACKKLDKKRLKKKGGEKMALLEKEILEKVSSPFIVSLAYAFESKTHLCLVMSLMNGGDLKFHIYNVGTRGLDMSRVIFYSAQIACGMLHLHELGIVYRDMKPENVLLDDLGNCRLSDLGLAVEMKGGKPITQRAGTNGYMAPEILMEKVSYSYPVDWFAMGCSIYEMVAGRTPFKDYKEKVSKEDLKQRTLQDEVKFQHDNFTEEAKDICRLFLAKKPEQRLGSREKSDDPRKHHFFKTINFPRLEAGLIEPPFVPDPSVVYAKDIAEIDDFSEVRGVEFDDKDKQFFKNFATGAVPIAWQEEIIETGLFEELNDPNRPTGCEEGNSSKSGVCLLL
Procedure, shortened: as §1

[8] = target: T8, NEK7 (Homo sapiens, UniProt Q8TDX7)
T8 construct: purchased Reaction Biology Corp
T8 sequence (Q8TDX7 whole entry): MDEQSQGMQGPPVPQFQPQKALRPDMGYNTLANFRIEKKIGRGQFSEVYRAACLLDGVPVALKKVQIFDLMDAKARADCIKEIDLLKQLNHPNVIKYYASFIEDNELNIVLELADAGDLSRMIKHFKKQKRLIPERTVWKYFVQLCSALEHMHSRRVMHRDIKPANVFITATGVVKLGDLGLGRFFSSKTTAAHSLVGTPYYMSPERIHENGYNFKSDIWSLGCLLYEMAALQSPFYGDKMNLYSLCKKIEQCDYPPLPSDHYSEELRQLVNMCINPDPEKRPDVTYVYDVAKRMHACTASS
Procedure, shortened: as §1

[9] = target: T9, PAK2 (Homo sapiens, UniProt Q13177)
T9 construct: purchased Reaction Biology Corp
T9 sequence (Q13177 whole entry): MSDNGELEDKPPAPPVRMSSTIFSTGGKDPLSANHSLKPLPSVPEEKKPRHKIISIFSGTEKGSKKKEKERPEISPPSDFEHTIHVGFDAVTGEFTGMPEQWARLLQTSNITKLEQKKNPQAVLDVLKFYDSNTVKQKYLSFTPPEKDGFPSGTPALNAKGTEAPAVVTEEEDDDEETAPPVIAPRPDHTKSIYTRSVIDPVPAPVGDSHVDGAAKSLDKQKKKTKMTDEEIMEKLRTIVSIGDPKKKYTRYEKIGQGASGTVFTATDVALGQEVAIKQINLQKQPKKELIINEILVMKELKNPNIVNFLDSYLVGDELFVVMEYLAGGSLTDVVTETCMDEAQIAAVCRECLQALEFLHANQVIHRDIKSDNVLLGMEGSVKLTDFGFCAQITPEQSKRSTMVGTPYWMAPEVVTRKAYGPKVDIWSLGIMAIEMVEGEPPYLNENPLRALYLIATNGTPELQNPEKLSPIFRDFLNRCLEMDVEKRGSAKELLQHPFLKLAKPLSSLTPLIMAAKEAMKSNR
Procedure, shortened: as §1

[10] = target: T10, PLK4/SAK (Homo sapiens, UniProt O00444)
T10 construct: purchased Reaction Biology Corp
T10 sequence (O00444 1-970): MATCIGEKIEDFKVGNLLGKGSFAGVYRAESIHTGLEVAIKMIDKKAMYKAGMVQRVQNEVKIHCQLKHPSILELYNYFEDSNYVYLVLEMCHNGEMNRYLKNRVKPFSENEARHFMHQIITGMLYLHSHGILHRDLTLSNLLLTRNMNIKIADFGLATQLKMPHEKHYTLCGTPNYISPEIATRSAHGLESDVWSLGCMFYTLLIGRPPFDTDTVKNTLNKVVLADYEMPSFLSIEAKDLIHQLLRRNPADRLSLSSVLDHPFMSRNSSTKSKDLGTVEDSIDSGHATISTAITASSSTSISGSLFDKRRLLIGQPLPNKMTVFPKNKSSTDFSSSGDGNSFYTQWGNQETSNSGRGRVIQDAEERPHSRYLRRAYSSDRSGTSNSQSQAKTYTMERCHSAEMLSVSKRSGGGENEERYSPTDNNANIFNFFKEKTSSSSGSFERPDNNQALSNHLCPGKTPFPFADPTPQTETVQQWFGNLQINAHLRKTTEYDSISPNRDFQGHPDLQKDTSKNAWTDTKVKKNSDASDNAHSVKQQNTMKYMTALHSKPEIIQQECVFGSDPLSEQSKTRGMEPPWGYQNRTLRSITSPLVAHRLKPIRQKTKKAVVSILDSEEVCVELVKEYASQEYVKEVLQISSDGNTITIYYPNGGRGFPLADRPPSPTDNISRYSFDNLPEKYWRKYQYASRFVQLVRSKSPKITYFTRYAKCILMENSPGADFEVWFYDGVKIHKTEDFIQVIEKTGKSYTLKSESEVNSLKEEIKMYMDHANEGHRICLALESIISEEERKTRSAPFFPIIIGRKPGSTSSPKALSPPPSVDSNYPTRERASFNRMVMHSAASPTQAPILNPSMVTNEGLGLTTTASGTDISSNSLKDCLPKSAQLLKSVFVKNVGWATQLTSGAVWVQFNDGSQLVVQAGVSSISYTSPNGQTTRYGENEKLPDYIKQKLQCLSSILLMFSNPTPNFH
Procedure, shortened: as §1

[11] = target: T11, PHKg1 (Homo sapiens, UniProt Q16816)
T11 construct: purchased Reaction Biology Corp
Procedure, shortened: as §1

[12] = target: T12, CLK1 (Homo sapiens, UniProt P49759)
T12 construct: purchased Reaction Biology Corp
T12 sequence (P49759 whole entry): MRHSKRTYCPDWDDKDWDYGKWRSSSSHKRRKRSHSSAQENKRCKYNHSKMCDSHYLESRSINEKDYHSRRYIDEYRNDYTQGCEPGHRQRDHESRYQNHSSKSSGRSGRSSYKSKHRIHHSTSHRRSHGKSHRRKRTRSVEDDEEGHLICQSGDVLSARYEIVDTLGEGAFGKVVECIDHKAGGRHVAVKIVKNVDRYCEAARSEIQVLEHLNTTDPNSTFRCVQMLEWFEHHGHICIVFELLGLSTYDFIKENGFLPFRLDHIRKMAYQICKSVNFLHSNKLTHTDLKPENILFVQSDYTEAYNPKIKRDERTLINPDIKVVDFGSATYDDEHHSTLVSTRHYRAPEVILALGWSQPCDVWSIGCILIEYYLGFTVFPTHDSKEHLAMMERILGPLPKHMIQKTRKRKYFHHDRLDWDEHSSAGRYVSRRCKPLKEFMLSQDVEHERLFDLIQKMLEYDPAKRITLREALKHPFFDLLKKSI
Procedure, shortened: as §1

[13] = target: T13, MEKK1 (Homo sapiens, UniProt Q13233)
T13 construct: purchased Reaction Biology Corp
T13 sequence (Q13233 whole entry): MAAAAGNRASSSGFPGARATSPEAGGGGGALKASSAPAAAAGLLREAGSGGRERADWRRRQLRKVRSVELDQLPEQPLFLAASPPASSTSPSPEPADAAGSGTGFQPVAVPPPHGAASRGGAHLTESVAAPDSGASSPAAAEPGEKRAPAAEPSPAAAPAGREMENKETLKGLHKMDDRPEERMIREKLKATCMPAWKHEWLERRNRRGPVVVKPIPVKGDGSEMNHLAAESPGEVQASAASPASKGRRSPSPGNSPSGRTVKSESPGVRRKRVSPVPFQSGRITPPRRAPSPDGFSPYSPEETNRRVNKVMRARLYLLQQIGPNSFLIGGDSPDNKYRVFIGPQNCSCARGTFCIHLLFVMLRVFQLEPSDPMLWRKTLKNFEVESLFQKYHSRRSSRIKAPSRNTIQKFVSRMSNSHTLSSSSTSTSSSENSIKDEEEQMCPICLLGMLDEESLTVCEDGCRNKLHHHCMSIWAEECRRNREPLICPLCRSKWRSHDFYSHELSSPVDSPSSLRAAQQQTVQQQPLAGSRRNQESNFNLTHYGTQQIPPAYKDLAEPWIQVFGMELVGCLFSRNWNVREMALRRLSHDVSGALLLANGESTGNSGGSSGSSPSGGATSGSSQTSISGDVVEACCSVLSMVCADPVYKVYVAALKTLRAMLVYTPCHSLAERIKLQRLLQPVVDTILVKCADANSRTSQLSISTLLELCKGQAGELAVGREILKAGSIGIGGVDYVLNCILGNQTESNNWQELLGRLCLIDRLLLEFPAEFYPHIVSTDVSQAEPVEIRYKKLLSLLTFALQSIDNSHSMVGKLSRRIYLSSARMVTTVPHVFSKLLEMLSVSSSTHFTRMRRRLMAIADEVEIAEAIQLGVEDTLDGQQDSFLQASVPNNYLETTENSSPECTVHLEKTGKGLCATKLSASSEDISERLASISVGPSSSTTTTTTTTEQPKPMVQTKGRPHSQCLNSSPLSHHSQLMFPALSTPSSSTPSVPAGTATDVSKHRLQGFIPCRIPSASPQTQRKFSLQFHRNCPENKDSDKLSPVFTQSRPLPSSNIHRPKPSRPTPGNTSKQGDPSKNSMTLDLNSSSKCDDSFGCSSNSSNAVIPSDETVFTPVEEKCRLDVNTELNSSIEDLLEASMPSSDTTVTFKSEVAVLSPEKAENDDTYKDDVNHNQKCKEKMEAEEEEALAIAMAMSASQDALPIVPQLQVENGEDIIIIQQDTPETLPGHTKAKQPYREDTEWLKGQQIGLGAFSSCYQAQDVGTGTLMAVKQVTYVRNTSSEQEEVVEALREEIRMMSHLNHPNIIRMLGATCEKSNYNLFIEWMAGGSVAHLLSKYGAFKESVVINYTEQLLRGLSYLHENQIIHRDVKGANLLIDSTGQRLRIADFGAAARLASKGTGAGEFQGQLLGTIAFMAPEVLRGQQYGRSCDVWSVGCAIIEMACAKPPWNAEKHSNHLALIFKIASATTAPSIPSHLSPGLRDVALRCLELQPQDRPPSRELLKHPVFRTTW
Procedure, shortened: as §1

[14] = read-out: % Enzyme Activity (relative to DMSO controls) AVG
[15] = read-out: % Enzyme Activity (relative to DMSO controls) Data 1
[16] = read-out: % Enzyme Activity (relative to DMSO controls) Data 2

T1 sequence (P42685 whole entry): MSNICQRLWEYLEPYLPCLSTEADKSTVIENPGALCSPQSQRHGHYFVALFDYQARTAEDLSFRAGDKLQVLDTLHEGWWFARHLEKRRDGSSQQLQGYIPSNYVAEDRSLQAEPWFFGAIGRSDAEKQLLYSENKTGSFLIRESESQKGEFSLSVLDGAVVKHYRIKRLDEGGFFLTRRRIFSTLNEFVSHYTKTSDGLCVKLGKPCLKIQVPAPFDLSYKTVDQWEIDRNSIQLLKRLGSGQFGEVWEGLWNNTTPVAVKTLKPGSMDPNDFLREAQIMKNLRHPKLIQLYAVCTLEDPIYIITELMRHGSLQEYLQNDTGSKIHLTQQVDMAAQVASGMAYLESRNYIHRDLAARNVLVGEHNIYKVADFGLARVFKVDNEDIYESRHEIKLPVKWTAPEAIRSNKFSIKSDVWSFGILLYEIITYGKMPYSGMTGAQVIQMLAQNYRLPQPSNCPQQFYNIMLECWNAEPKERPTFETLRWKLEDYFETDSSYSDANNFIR

CC(C)(C)C(=O)N1N=CC[C@H]1c1ccccc1 [GSK′963] showed a remaining activity at 10 µM [1, 14] of 86%, a remaining activity at 10 µM [1, 15] of 87.6% and a remaining activity at 10 µM [1, 16] of 84.4%. The remaining activity at 10 µM [2, 14] was 111%, the remaining activity at 10 µM [2, 15] was 109% and the remaining activity at 10 µM [2, 16] was 112%. The remaining activity at 10 µM [3, 14] was 116%, the remaining activity at 10 µM [3, 15] was 116% and the remaining activity at 10 µM [3, 16] was 116%. For the same compound, the remaining activity at 10 µM [4, 14] was 97.8%, the remaining activity at 10 µM [4, 15] was 95.5% and the remaining activity at 10 µM [4, 16] was 100%. For the same compound, the remaining activity at 10 µM [5, 14] was 96.2%, the remaining activity at 10 µM [5, 15] was 98.3% and the remaining activity at 10 µM [5, 16] was 94.1%. It also gave a remaining activity at 10 µM [6, 14] of 83%, a remaining activity at 10 µM [6, 15] of 84.7% and a remaining activity at 10 µM [6, 16] of 81.4%. For the same compound, the remaining activity at 10 µM [7, 14] was 90.3%, the remaining activity at 10 µM [7, 15] was 88.3% and the remaining activity at 10 µM [7, 16] was 92.4%. For the same compound, the remaining activity at 10 µM [8, 14] was 98.6%, the remaining activity at 10 µM [8, 15] was 98.1% and the remaining activity at 10 µM [8, 16] was 99%. For the same compound, the remaining activity at 10 µM [9, 14] was 95.8%, the remaining activity at 10 µM [9, 15] was 94.9% and the remaining activity at 10 µM [9, 16] was 96.8%. It also gave a remaining activity at 10 µM [10, 14] of 113%, a remaining activity at 10 µM [10, 15] of 114% and a remaining activity at 10 µM [10, 16] of 112%. The remaining activity at 10 µM [11, 14] was 102%, the remaining activity at 10 µM [11, 15] was 103% and the remaining activity at 10 µM [11, 16] was 101%. For the same compound, the remaining activity at 10 µM [12, 14] was 107%, the remaining activity at 10 µM [12, 15] was 108% and the remaining activity at 10 µM [12, 16] was 106%. For the same compound, the remaining activity at 10 µM [13, 14] was 97.3%, the remaining activity at 10 µM [13, 15] was 101% and the remaining activity at 10 µM [13, 16] was 94%.

From PMC4979471 (Cell Death Discovery, 2015)
